Several values for one entry are separate records, joined by “and”; a condition that tells them apart may be missing. Equal values may be shown once.
How the values were obtained:
[1] = test system: Human eosinophils; test: Eosinophil extracellular superoxide production (cytochrome c); assay type: cell-based; conditions: 1 hr pretreatment at 37° C.; IL-5 or PAF stimulus
Protocol: (§1) Human eosinophils were isolated from atopic and non-atopic donors using density centrifugation and CD16-magnetic bead negative selection. Eosinophil purity was always>93%.
Statistical analyses were performed using the Student's paired t-test; significance defined as p value<0.05 compared to “nil” or 0.0 microM HCQ.
The general procedure described hereinabove was followed. Eosinophils were pretreated with HCQ for 1 hr at 37° C. and then stimulated as described in FIG. 1 in 96-well plates (50,000 cells/well). Extracellular superoxide was detected using cytochrome c and a 96-well plate reader.

[2] = test system: Human eosinophils; test: IL-5 stimulated eosinophil degranulation, EDN release by DARIA; assay type: cell-based
Description: FIG. 2 graphically depicts the effect of HCQ on IL-5 stimulated eosinophil degranulation as measured by release of eosinophil-derived neurotoxin. In this figure, EDN refers to eosinophil-derived neurotoxin.
as §1
The general procedure described hereinabove and Example 1 was followed. Supernatants from superoxide assay samples were analyzed for EDN by Double-Antibody Radioimmunoassay (DARIA). The results are depicted in FIG. 2.

[3] = test system: Human eosinophils; test: IL-5 stimulated eosinophil survival by flow cytometry; assay type: cell-based; conditions: 100 pg/ml IL-5, four days, compared with dexamethasone
Protocol: as §1
Flow cytometry was performed on a Becton Dickenson FACScan. Data was analyzed using CellQuest software. For cell surface marker determination, specific antibodies directly conjugated with the fluorescent indicator, phycoerythrin (PE) were utilized.
The general procedure described hereinabove was followed. Eosinophils were incubated with 100 pg/ml IL-5 with or without dexamethasone or HCQ. After four days, eosinophil viability was measured by flow cytometry. The results are depicted in FIG. 3.

[4] = test system: Primary Human Epithelial Cells (tonsillar); test: IP-10/RANTES production in primary epithelial cells exposed to HRV-16; assay type: cell-based
Protocol: Primary cultures of harvested human tonsillar epithelial cells were preincubated for 24 hr with 50 microM HCQ. The cells were then exposed to human rhinovirus type 16 (HRV-16) which was left on the cells in the presence and absence of HCQ. Medium was recovered at two different time post infection (24 hr viral incubation and 48 hr viral incubation) and assayed for IP-10 and RANTES. The data is depicted in Table 1 below and in FIG. 5.

[5] = test system: BEAS-2B epithelial cells; test: IP-10/RANTES production in BEAS-2B cells exposed to HRV-16; assay type: cell-based; conditions: 48 hr
Protocol: Cells of the BEAS-2B epithelial cell line were preincubated for either 6 hr or 24 hr with varying concentrations of HCQ. Cells were then exposed to human rhinovirus type 16 (HRV-16) which was left on the cells in the presence and absence of HCQ at the concentrations indicated for 48 hr. The data is depicted in Table 2 and FIG. 13.

[6] = test system: human tracheal epithelial cells; test: Pro-inflammatory mRNA in tracheal epithelial cultures infected with RV16, RT-PCR; assay type: cell-based; conditions: 50 microM HCQ, RV16 infection
Protocol: Differentiated cultures of human tracheal cells grown at an air liquid interface were pre-incubated for 12h with 50 microM HCQ prior to 12 h infection with human rhinovirus type 16 (HRV-16). Twelve hours after removal of virus, levels of mRNA for RANTES, ICAM-1, IL-1beta, TNF-alpha and IL-6 were quantified using multiplex two-step (TaqMan) RT-PCR. The results are depicted in FIGS. 6-10.
(§2) FIG. 6 graphically depicts the effects of HCQ on the release of RANTES (regulated on activation normal T-cell expressed and secreted) in cultured human tracheal epithelial cells. In the figure, RV16-p3 refers to the rhinovirus strain. Human tracheal epithelial cells were cultured for 14 days in serum-free growth media. On day 14, the cultures were divided into four groups. Two groups were pre-treated for 6 hours with HCQ (final concentration 50 microM) in media administered via the basolateral side. Then RV-16-p3 at a tissue culture infectious dose (TCID50) of 10^6/ml was added to one of groups receiving HCQ and one of thgroups not pretreated with HCQ. Phosphate buffered saline (PBS) was added to the other two groups, creating four conditions: media alone (control), HCQ alone, RV-16-p3 alone and RV-16-p3+HCQ. After six hours, the experimental suspensions were removed and the cells were washed three times with PBS. Cells were allowed to recover for 24h and then the mucosal surfaces of the culture inserts were flushed with 500 microL of PBS and the flushings were retained.
The filters containing the cell sheets were cut in half and placed in RLT buffer (Rneasy lysis buffer) or fixed in 10% buffered formalin prior to their preparation for fluorescence in situ hybridization (FISH) and gene expression analysis as described in detail elsewhere (Lopez-Souza N, et al., Resistance of differentiated human airway epithelium to infection by rhinovirus, Am J Physiol Lung Cell Mol Physiol, 2004;286:L373-81). Levels of mRNA for RANTES were determined in cell lysates using a two-step method of gene transcript profiling in which multiplex RT-PCR is combined with individual gene quantification via real-time PCR on generated cDNA product.
as §2, with “FIG. 7” for “FIG. 6”, “the upregulation” for “the release”, “of for intercellular adhision molecule 1 (ICAM-1)” for “of RANTES (regulated on activation normal T-cell expressed and secreted)”, “strain. ICAM refers to intracellular adhesion molecule 1.” for “strain.”, “of the groups” for “of thgroups”
FIG. 8 graphically depicts the effects of HCQ on the release of IL-1beta and TNF-alpha in cultured human tracheal epithelial cells. In the figure, RV16-p3 refers to the rhinovirus strain. IL-1 beta refers to Interleukin-1 beta. […]

[7] = Single-dose intravenous HCQ pharmacokinetics in rats; assay type: in vivo; conditions: for Tmax / Vd / clearance / half-life / AUC(0-inf) / Cmax / AUC(0-t): both sexes, rat, whole blood; for Tmax / Vd / clearance / AUC(0-inf) / Cmax / AUC(0-t): single day; for half-life: 2-compartment model, read-out: Apparent Terminal t1/2 (converted); for AUC(0-t): read-out: AUC0-23
Protocol: Twelve rats per dose group (six M: six F) received hydroxychloroquine sulfate, USP as an intravenous bolus injected over 30 minutes.
Following the single injection, blood samples were drawn from rat pairs at one, three, six, 12, 24, 36, 48, 192, 360, and 1,032 hours.

[8] = Single-dose intravenous HCQ pharmacokinetics in dogs; assay type: in vivo, Beagle dogs; conditions: for AUC(0-inf) / Cmax / AUC(0-t) / half-life / Tmax / Vd / clearance: both sexes, beagle, dog, whole blood; for AUC(0-inf) / Cmax / AUC(0-t) / Tmax / Vd / clearance: single day; for AUC(0-t): read-out: AUC0-23; for half-life: 2-compartment model, read-out: Apparent terminal t1/2 (converted)
Protocol: Two Beagle dogs per dose group (one M: one F) received hydroxychloroquine sulfate, USP as an intravenous bolus infusion over 30 minutes.
Following the single injection, blood samples were drawn at one, two, three, five, six, seven, eight, 12, 18, 24, 36, 120, 192, 264, 360, 528, 696, 864 and 1,032 hours.

[9] = conventional oral doses 4-6 mg/kg/day, after 3 months therapy, two clinical trials; cited from earlier work
[10] = test system: leukocytes; conditions: ex vivo and in vitro experiments; cited from earlier work
[11] = lupus erythematosus and rheumatoid arthritis; cited from earlier work
[12] = asthma, oral HCQ; cited from earlier work
[13] = test system: neutrophil, macrophages, T cell; conditions: at concentrations in the range obtained by targeted delivery; cited from earlier work
[14] = rats, intravenous, 10 mg/kg/day

## CCN(CCO)CCCC(C)Nc1ccnc2cc(Cl)ccc12 (centres unmarked) [HCQ, hydroxychloroquine]
[1]
  HCQ concentration at which IL-5 or PAF induced eosinophil superoxide is inhibited: at least 0.5 mM and ≥ 200 mcg/ml
[2]
  HCQ concentration at which eosinophil degranulation is inhibited: > 100 µM
[3]
  eosinophil survival: actively shortens eosinophil survival, to a much greater extent than a comparative dose of dexamethasone
[4]; HRV-16 + 50 microM HCQ, 24
  IP-10: hrs of preincubation 24: 31 pg/mL
[4]; HRV-16 + 50 microM HCQ, 48
  IP-10: hrs of preincubation 48: 112 pg/mL
[4]; HRV-16 + HCQ, 48
  RANTES: hrs of preincubation 48: 509 pg/mL
[5]; HRV-16 + 0.01 mM HCQ
  IP-10: 6 hrs preincubation: 3084 pg/mL
  IP-10: 24 hrs preincubation: 2506 pg/mL
  RANTES: 6 hrs preincubation: 3326 pg/mL
[5]; HRV-16 + 0.1 mM HCQ
  IP-10: 6 hrs preincubation: 2914 pg/mL
  IP-10: 24 hrs preincubation: 1814 pg/mL
  RANTES: 6 hrs preincubation: 3128 pg/mL
[5]; HRV-16 + 1 mM HCQ
  IP-10: 6 hrs preincubation: 3045 pg/mL
  IP-10: 24 hrs preincubation: 2098 pg/mL
  RANTES: 6 hrs preincubation: 1994 pg/mL
[5]; HRV-16 + 50 mM HCQ
  IP-10: 6 hrs preincubation: 31 pg/mL
  IP-10: 24 hrs preincubation: 31 pg/mL
  RANTES: 6 hrs preincubation: 0 pg/mL
[6]
  release of IL-1beta: rapidly block
  release of IL-6: rapidly block
  release of IL-8: rapidly block
  release of TNF-alpha: rapidly block
  up-regulation of ICAM-1: rapidly block
[7]; rats, intravenous, 5 mg/kg/day
  Tmax: 0.5 h
  Vd: 11.1 L/kg
  clearance: 20 mL/min/kg
  half-life: 7.5 h
  AUC(0-inf): 6560 ng·h/mL
  Cmax: 1020 ng/mL
  AUC(0-t): 4050 ng·h/mL
[7]; [14]
  Tmax: 0.5 h
  Vd: 11.2 L/kg
  clearance: 21.7 mL/min/kg
  half-life: 7.4 h
  AUC(0-inf): 11000 ng·h/mL
  Cmax: 1740 ng/mL
  AUC(0-t): 7220 ng·h/mL
[7]; rats and dogs, intravenous, versus concentrations needed for in vitro effects
  peak concentrations as fraction of those required: 1/100
[7]; rats, intravenous 10 mg/kg
  peak serum concentrations: 2 µg/mL
[8]
  peak whole blood concentrations: less than 3 mcg/ml
[8]; 5 mg/kg/day
  AUC(0-inf): 24200 ng·h/mL
  Cmax: 1200 ng/mL
  AUC(0-t): 8160 ng·h/mL
  half-life: 20.8 h
  Tmax: 0.5 h
  Vd: 9.1 L/kg
  clearance: 5 mL/min/kg
[8]; 10 mg/kg/day
  AUC(0-inf): 82100 ng·h/mL
  Cmax: 2700 ng/mL
  AUC(0-t): 30900 ng·h/mL
  half-life: 35 h
  Tmax: 0.5 h
  Vd: 6.1 L/kg
  clearance: 1.67 mL/min/kg
[9]
  therapeutic benefit in IBD: in neither was a consistent therapeutic benefit evident
[10]
  incubation time to effect on leukocytes: less than 1 hour
[11]
  onset of action: 3-4 months
[12]
  treatment time before therapeutic effect begins: 24-26 weeks
[13]
  neutrophil and macrophage superoxide release, macrophage release of TNF-alpha, IL-6, Interferon-gamma and T cell activation: inhibited

Source: patent US20040220220A1, “Method for treating inflammatory bowel disease” (priority 2001, published 2004)
